The source of these data is patent US20050220865A1, “Compressed composition comprising magnesium salt” (priority 2004, published 2005).

The conditions of data set [1]: cited from earlier work; for USP 27/NF22 Solubility: USP 27/NF22 solubility term.
Data set [2] is described as follows: Storage stability of USP <711> dissolution profile at 40° C. and 75% relative humidity. The data set is classed as physicochemical. The settings on record: FIG. 4; stored at 40° C. and 75% relative humidity up to 2 months; protected from moisture. As for the experimental part: By “pharmaceutically acceptable storage conditions” is meant storage at 25° C. and 60% relative humidity (RH) in a tight, sealed container-enclosure system. The storage conditions employed herein (40° C. and 75% RH) in evaluating formulations are used in the pharmaceutical industry to conduct accelerated stability testing of formulations such that a period of 2 months under these conditions is generally accepted to equal a period of 1 year under pharmaceutically acceptable storage conditions (25° C. and 60% relative humidity).
(§1) USP 27/NF22 specification for magnesium oxide tablets is not less than 75% (O) of the labeled amount of MgO is dissolved in 45 minutes. Dissolution testing is performed using apparatus II with 900 mL of 0.1 N hydrochloric acid maintained at 37° C. and agitated at 75 rpm. Samples are withdrawn at after 45 minutes of testing. The amount of MgO dissolved is then determined using atomic absorption (AA) spectrophotometry at a wavelength of 285.2 nm using filtered portions of the solution under test, diluted with Dissolution Medium. A standard curve is generated using a magnesium standard solution of known concentration in the same medium.
The initial dissolution profile for each of the prior art and present formulations is determined as described herein. […] At monthly intervals, the dissolution profile of the formulations is determined again. […]

A short description of data set [3]: Magnesium oxide tablet monograph USP <711> dissolution. The data set is classed as physicochemical. To be noted: FIG. 5; binary mixture of heavy grade magnesium oxide, USP with excipient. As for the experimental part:
The following drawings are given by way of illustration only, and thus are not intended to limit the scope of the present invention. The USP27/NF22 monograph for magnesium oxide tablets specifies that the dissolution method is to be executed using the general conditions of chapter <711> with 900 mL of 0.1 N hydrochloric acid, a paddle rotation speed of 75 RPM, and a sampling timepoint of 45 minutes.
as §1

For the molecule `[F-].[F-].[Mg+2]` [MgF2], in data set [1], the “USP 27/NF22 Solubility” value is “Practically Insoluble” and the “Solubility in Neutral Water” value is reported as 0.0002 g/100 mL.
As to `[O]=[Mg]` [MgO, magnesium oxide, reference compound], in data set [2], the “dissolution of magnesium from pure magnesium oxide” value is on record as “suitable dissolution”. In addition, in data set [1], the “USP 27/NF22 Solubility” value is listed as “Practically Insoluble” and the “Solubility in Neutral Water” value was 0.00062 g/100 mL.
For `O=C([O-])CC(O)(CC(=O)[O-])C(=O)[O-].[Na+].[Na+].[Na+]` [sodium citrate], the “influence of excipient on dissolution of magnesium” value in data set [3] is “decrease dissolution”.
Still for that read-out and setting: then potassium phosphate, with “decrease dissolution”.
